US11266170B2, “Sweetener and flavor compositions, methods of making and methods of use thereof” (EPC Natural Products Co., Ltd., priority 2018, dated 2022)
Residues, ends and D or L forms follow the SMILES beside them.

Tests used:
3 persons = assay: Sensory analysis of odor/smell, color and taste of reacted samples (Examples 55-62); format: in vivo
Method: The reaction partners were dissolved in water and then warmed glycerin (60° C.) was added. […]
The taste test was performed as in Example 38.
All samples were assessed at 22° C. after the Maillard reaction was stopped by placing the sealed vials in an ice bath. After 20 minutes in the ice bath the sealed vials were put in a water bath set to 22° C.
The odor/smell was assessed independently by 3 persons; the final description was agreed after discussion. […] The taste was assessed independently by 3 persons either in the original samples or after appropriate dilution to achieve relevant concentrations of sugars and steviol-glycosides (i.e. 5-9% SE); the final description was agreed after discussion.

[1] = cited from earlier work; for times sweeter than sucrose: relative to sucrose / sugar, the sweetness depends on the tested concentration; for Sweetness by food energy / Sweetness by weight: compared to sucrose
[2] = Kinetics of reaction of Phe with Reb-A, Gluc, Xyl, Suc in dependence of pH-conditions, HPLC/MS (Example 55); format: physicochemical
Method: Quantitative evaluation was performed using external standardization.
Kinetics of Reaction in dependence of pH-conditions

[3] = negative controls (no carbohydrate source), 10 ml glycerin/water 9:1, 100 °C, 40 minutes
[4] = Example 57, before reaction, 10 ml KH2PO4, pH 7.8
[5] = Example 57, after reaction, 10 ml KH2PO4, pH 7.8, 2.5 h, 120 °C
[6] = reaction of Phe and Reb-A, pH = 5.5, Reb-B from degraded Reb-A, MRIs from degraded Phe
[7] = reaction of Phe and Reb-A, pH = 7.0, Reb-B from degraded Reb-A, MRIs from degraded Phe
[8] = reaction of Phe and Reb-A, pH = 8.5, Reb-B from degraded Reb-A, MRIs from degraded Phe

C[C@H](N)C(=O)O [8.91 mg Ala]
Smell (3 persons; [3]): Neutral, slightly Agar
Taste (3 persons; [3]): Slightly sweet

OC[C@H]1OC(O)[C@H](O)[C@@H](O)[C@@H]1O (stereo partly drawn) [9 mg Glucose]
Smell (3 persons; [4]): neutral
Taste (3 persons; [4]): Sweet

N[C@@H](CO)C(=O)O [10.5 mg Ser]
Smell (3 persons; [3]): Lotus flower
Taste (3 persons; [3]): Slightly sweet

O=C(O)[C@@H]1CCCN1 [11.5 mg Pro]
Taste (3 persons; [3]): Slightly sweet

C[C@@H](O)[C@H](N)C(=O)O [11.91 mg Thr]
Smell (3 persons; [3]): Vanilla, butter
Taste (3 persons; [3]): Slightly sweet

N[C@@H](CS)C(=O)O [12.1 mg Cys]
Smell (3 persons; [3]): Unpleasant (sulfur)
Taste (3 persons; [3]): Slightly sweet

CC[C@H](C)[C@H](N)C(=O)O [13.11 mg Ile]
Smell (3 persons; [3]): Coffee
Taste (3 persons; [3]): Slightly sweet

NCCCC[C@H](N)C(=O)O [14.7 mg Lys]
Smell (3 persons; [3]): Popcorn
Taste (3 persons; [3]): Slightly sweet

CSCC[C@H](N)C(=O)O [14.9 mg Met]
Smell (3 persons; [3]): Sulfuric
Taste (3 persons; [3]): Slightly sweet

N[C@@H](Cc1ccccc1)C(=O)O [16.5 mg Phe]
Smell (3 persons; [4]): neutral
Taste (3 persons; [4]): No taste
Smell (3 persons; Example 58, after reaction, 10 ml KH2PO4, pH 7.8, 2.5 h, 120 °C): Caramel, burnt
Taste (3 persons; Example 58, after reaction, after dilution 1:20): Sweet
Smell (3 persons; Example 58, before reaction, 10 ml KH2PO4, pH 7.8): Neutral
Taste (3 persons; Example 58, before reaction, after dilution 1:20): No taste
Smell (3 persons; [3]): Bloomy, caramel
Taste (3 persons; [3]): Slightly sweet

N[C@@H](Cc1ccc(O)cc1)C(=O)O [18.1 mg Tyr]
Smell (3 persons; [3]): neutral
Taste (3 persons; [3]): Slightly sweet

N[C@@H](Cc1c[nH]c2ccccc12)C(=O)O [20.42 mg Try]
Smell (3 persons; [3]): Unpleasant (fecal)
Taste (3 persons; [3]): Slightly sweet

COC(=O)[C@H](Cc1ccccc1)NC(=O)[C@@H](N)CC(=O)O [Aspartame] (H-Asp-Phe-OMe)
times sweeter than sucrose [1]: 160-200 times

OC[C@@H](O)[C@@H](O)CO [Erythritol]
Sweetness by food energy [1]: 14
Sweetness by weight [1]: 0.6-0.7

O=C[C@H](O)[C@@H](O)[C@H](O)[C@H](O)C(=O)O [Glucuronic Acid]
Smell (3 persons; [5]): burnt bread
Taste (3 persons; [5]): Bitter

O=C1O[C@@H]2[C@@H](O)[C@H](O)O[C@@H]2C1O (stereo partly drawn) [Glucuronolactone]
Smell (3 persons; [5]): Burnt sugar
Taste (3 persons; [5]): Bitter

OCC(O)CO [Glycerol]
Sweetness by food energy [1]: 0.55
Sweetness by weight [1]: 0.6

CC1(C)[C@@H](O[C@H]2O[C@H](C(=O)O)[C@@H](O)[C@H](O)[C@H]2O[C@@H]2O[C@H](C(=O)O)[C@@H](O)[C@H](O)[C@H]2O)CC[C@]2(C)[C@H]3C(=O)C=C4[C@@H]5C[C@@](C)(C(=O)O)CC[C@]5(C)CC[C@@]4(C)[C@]3(C)CC[C@@H]12 [Glycyrrhizin]
Sweetness by weight [1]: 30-50

OC[C@H]1O[C@H](OC[C@H]2OC(O)(CO)[C@@H](O)[C@@H]2O)[C@H](O)[C@@H](O)[C@@H]1O (stereo partly drawn) [Isomaltulose]
Sweetness by weight [1]: 0.5

OC[C@@H](O)[C@@H](O[C@@H]1O[C@H](CO)[C@H](O)[C@H](O)[C@H]1O)[C@H](O)[C@@H](O)CO [Lactitol]
Sweetness by food energy [1]: 0.8
Sweetness by weight [1]: 0.4

O=C(O)[C@H](Cc1ccccc1)NCC(=O)[C@@H](O)[C@H](O)[C@H](O)CO [MRI (Phe-Glu)]
% formation ([2]; reaction of Phe and Suc, pH = 5.5, from degraded Phe): <0.10%
% formation ([2]; reaction of Phe and Suc, pH = 7.0, from degraded Phe): 0.54%
% formation ([2]; reaction of Phe and Suc, pH = 8.5, from degraded Phe): 0.84%

C=C1CC23CC[C@H]4[C@@](C)(CCC[C@@]4(C)C(=O)OC4O[C@H](C(=O)N[C@H](Cc5ccccc5)C(=O)O)[C@@H](O)[C@H](O)[C@H]4O)[C@@H]2CC(O[C@@H]2O[C@H](CO)[C@@H](O)C(O[C@@H]4O[C@H](CO)[C@@H](O)[C@H](O)[C@H]4O)[C@H]2O[C@@H]2O[C@H](CO)[C@@H](O)[C@H](O)[C@H]2O)C1C3 (stereo partly drawn) [MRI (Phe-Reb-A)]
% formation [2, 6]: 10.4%
% formation [2, 7]: 11.3%
% formation [2, 8]: 14.7%

OC[C@@H](O)[C@@H](O[C@H]1O[C@H](CO)[C@@H](O)[C@H](O)[C@H]1O)[C@H](O)[C@@H](O)CO [Maltitol]
Sweetness by food energy [1]: 1.7
Sweetness by weight [1]: 0.75-0.9

OC[C@@H](O)[C@@H](O)[C@H](O)[C@H](O)CO [Mannitol]
Sweetness by food energy [1]: 1.2
Sweetness by weight [1]: 0.5
times sweeter than sucrose [1]: 0.55-0.65 times

N[C@@H](C[C@@](O)(Cc1c[nH]c2ccccc12)C(=O)O)C(=O)O [Monatin]
Sweetness by weight [1]: 3,000

COc1ccc(CCC(=O)c2c(O)cc(O[C@@H]3O[C@H](CO)[C@@H](O)[C@H](O)[C@H]3O[C@@H]3O[C@@H](C)[C@H](O)[C@@H](O)[C@H]3O)cc2O)cc1O [NHDC, Neohesperidin dihydrochalcone]
times sweeter than sugar at threshold concentrations ([1]; at threshold concentrations): 1500-1800 times
times sweeter than sugar weight-for-weight ([1]; weight-for-weight): about 340 times

C[C@@H]1O[C@@H](O[C@H]2O[C@@H]([C@@H](C)C3CC[C@@H]4[C@H]5CC(=O)[C@@H]6C[C@H](O[C@@H]7O[C@H](CO)[C@@H](O)[C@H](O)[C@H]7O[C@@H]7O[C@@H](C)[C@H](O)[C@@H](O)[C@H]7O)CC[C@]6(C)[C@@H]5CC[C@]34C)CC[C@@H]2C)[C@H](O)[C@H](O)[C@H]1O (stereo partly drawn) [Osladin]
Sweetness by weight [1]: 500

O=C(CO)[C@H](O)[C@H](O)[C@H](O)CO [Psicose]
Sweetness by weight [1]: 0.7

C=C1C[C@@]23CC[C@H]4[C@@](C)(CCC[C@@]4(C)C(=O)O[C@@H]4O[C@H](CO)[C@@H](O)[C@H](O)[C@H]4O)[C@@H]2CC[C@]1(O[C@@H]1O[C@H](CO)[C@@H](O)[C@H](O)[C@H]1O)C3 [Rubusoside]
times sweeter than sucrose [1]: 200 times

OC[C@@H](O)[C@@H](O)[C@H](O)[C@@H](O)CO [Sorbitol]
Sweetness by food energy [1]: 0.9
Sweetness by weight [1]: 0.6

OC[C@H]1O[C@@](CO)(O[C@H]2O[C@H](CO)[C@@H](O)[C@H](O)[C@H]2O)[C@@H](O)[C@@H]1O [Suc]
% degradation ([2]; reaction of Phe and Suc, pH = 5.5): 3.67%
% degradation ([2]; reaction of Phe and Suc, pH = 7.0): 5.69%
% degradation ([2]; reaction of Phe and Suc, pH = 8.5): 9.81%

O=C(CO)[C@@H](O)[C@@H](O)[C@H](O)CO [Tagatose]
Sweetness by food energy [1]: 2.4
Sweetness by weight [1]: 0.92

C[C@H](CC[C@@H](O[C@@H]1O[C@H](CO)[C@@H](O)[C@H](O)[C@H]1O[C@@H]1O[C@H](CO)[C@@H](O)[C@H](O)[C@H]1O)C(C)(C)O)[C@H]1CC[C@@]2(C)[C@H]3CC=C4[C@@H](CC[C@H](O[C@@H]5O[C@H](CO[C@@H]6O[C@H](CO)[C@@H](O)[C@H](O)[C@H]6O)[C@@H](O)[C@H](O)[C@H]5O)C4(C)C)[C@]3(C)[C@H](O)C[C@]12C [mogroside IV]
times sweeter than sucrose [1]: 126 times

C[C@H](CC[C@@H](O[C@@H]1O[C@H](CO[C@@H]2O[C@H](CO)[C@@H](O)[C@H](O)[C@H]2O)[C@@H](O)[C@H](O)[C@H]1O[C@@H]1O[C@H](CO)[C@@H](O)[C@H](O)[C@H]1O)C(C)(C)O)[C@H]1CC[C@@]2(C)[C@@H]3CC=C4[C@@H](CC[C@H](O[C@@H]5O[C@H](CO[C@@H]6O[C@H](CO)[C@@H](O)[C@H](O)[C@H]6O)[C@@H](O)[C@H](O)[C@H]5O)C4(C)C)[C@]3(C)[C@H](O)C[C@]12C [mogroside V]
times sweeter than sucrose [1]: 256-344 times

O=S(=O)([O-])NC1CCCCC1.[Na+] [sodium cyclamate]
times sweeter than sucrose [1]: about 30 times

OC[C@H]1O[C@H](O[C@]2(CCl)O[C@H](CCl)[C@@H](O)[C@@H]2O)[C@H](O)[C@@H](O)[C@H]1Cl [sucralose]
times sweeter than sucrose [1]: about 600 times

Brazzein (QDKCKKVYENYPVSKCQLANQCNYDCKLDKHARSGECFYDEKRNLQCICDYCEY; UniProt P56552 1-54, looked up) [Protein]
Sweetness by weight [1]: 500-2000

Curculin
Sweetness by weight [1]: 430-2070

Inulin
Sweetness by weight [1]: 0.1

Isomalt
Sweetness by food energy [1]: 0.9-1.3
Sweetness by weight [1]: 0.45-0.65

Mabinlin
Sweetness by weight [1]: 100

Maltodextrin
Sweetness by weight [1]: 0.15

Monellin
Sweetness by weight [1]: 800-2,000

Pentadin
Sweetness by weight [1]: 500

Polydextrose
Sweetness by weight [1]: 0.1

rebaudioside B [RB]
% formation [2, 6]: 23.1%
% formation [2, 7]: 22.7%
% formation [2, 8]: 19.1%

B1: Miraculin (protein, UniProt P13087 30-220, looked up)
Miraculin: DSAPNPVLDIDGEKLRTGTNYYIVPVLRDHGGGLTVSATTPNGTFVCPPRVVQTRKEVDHDRPLAFFPENPKEDVVRVSTDLNINFSAFMPCRWTSSTVWRLDKYDESTGQYFVTIGGVKGNPGPETISSWFKIEEFCGSGFYKLVFCPTVCGSCKVKCGDVGIYIDQKGRRRLALSDKPFAFEFNKTVYF
Notes (taste) ([1]; result in words): A protein that does not taste sweet by itself
